Experiment: molar heat capacity at constant volume
Settings: Liquid, Vacuum adiabatic calorimetry

FCF [difluoromethane]
Settings	molar heat capacity at constant volume [J/K/mol]
268.15 K, 8268 kPa	49.47
268.15 K, 8502 kPa	48.8
269.15 K, 9280 kPa	49.32
269.15 K, 9512 kPa	49.68
270.15 K, 10291 kPa	49.47
270.15 K, 10521 kPa	49.84
271.15 K, 11302 kPa	49.42
271.15 K, 11531 kPa	49.53
272.15 K, 12312 kPa	49.94
272.15 K, 12421 kPa	50.57
272.15 K, 12540 kPa	49.06
273.15 K, 13321 kPa	49.06
273.15 K, 13429 kPa	49.79
273.15 K, 13551 kPa	50.25
274.15 K, 14330 kPa	49.94
274.15 K, 14438 kPa	49.63
274.15 K, 14560 kPa	49.37
275.15 K, 15337 kPa	49.47
275.15 K, 15444 kPa	49.84
275.15 K, 15568 kPa	49.47
276.15 K, 16344 kPa	49.89
276.15 K, 16452 kPa	49.84
276.15 K, 16577 kPa	49.73
277.15 K, 17350 kPa	49.32
277.15 K, 17457 kPa	49.63
277.15 K, 17583 kPa	49.99
278.15 K, 18354 kPa	49.89
278.15 K, 18462 kPa	50.25
278.15 K, 18589 kPa	49.47
279.15 K, 19358 kPa	49.89
279.15 K, 19465 kPa	49.79
279.15 K, 19595 kPa	50.15
280.15 K, 20361 kPa	49.63
280.15 K, 20468 kPa	50.2
280.15 K, 20598 kPa	49.99
281.15 K, 21363 kPa	50.46
281.15 K, 21470 kPa	49.63
281.15 K, 21601 kPa	49.89
282.15 K, 22363 kPa	49.58
282.15 K, 22472 kPa	50.25
282.15 K, 22602 kPa	50.05
283.15 K, 23363 kPa	50.41
283.15 K, 23473 kPa	50.15
283.15 K, 23603 kPa	49.94
284.15 K, 24362 kPa	50.31
284.15 K, 24472 kPa	49.94
284.15 K, 24606 kPa	50.25
285.15 K, 25359 kPa	50.15
285.15 K, 25470 kPa	50.51
285.15 K, 25603 kPa	50.25
286.15 K, 26356 kPa	50.51
286.15 K, 26466 kPa	50.62
286.15 K, 26598 kPa	50.2
287.15 K, 27351 kPa	50.36
287.15 K, 27461 kPa	50.2
287.15 K, 27594 kPa	50.36
288.15 K, 28345 kPa	50.57
288.15 K, 28454 kPa	50.62
288.15 K, 28588 kPa	50.41
289.15 K, 5774 kPa	51.24
289.15 K, 5835 kPa	49.79
289.15 K, 29338 kPa	50.46
289.15 K, 29446 kPa	50.72
289.15 K, 29581 kPa	51.09
290.15 K, 6570 kPa	50.62
290.15 K, 6631 kPa	50.93
291.15 K, 7365 kPa	51.14
291.15 K, 7428 kPa	51.19
292.15 K, 8161 kPa	51.24
292.15 K, 8224 kPa	51.14
293.15 K, 8956 kPa	51.4
293.15 K, 9019 kPa	51.71
294.15 K, 9752 kPa	51.66
294.15 K, 9815 kPa	50.83
295.15 K, 10546 kPa	51.19
295.15 K, 10610 kPa	51.56
296.15 K, 11341 kPa	51.19
296.15 K, 11405 kPa	51.5
297.15 K, 12135 kPa	51.61
297.15 K, 12199 kPa	51.35
298.15 K, 12929 kPa	51.5
298.15 K, 12993 kPa	51.92
299.15 K, 13723 kPa	51.66
299.15 K, 13787 kPa	51.82
300.15 K, 14517 kPa	51.66
300.15 K, 14581 kPa	52.08
301.15 K, 15309 kPa	52.34
301.15 K, 15374 kPa	51.92
302.15 K, 16102 kPa	52.08
302.15 K, 16167 kPa	52.23
303.15 K, 16894 kPa	52.13
303.15 K, 16960 kPa	52.49
304.15 K, 17685 kPa	52.13
304.15 K, 17752 kPa	52.54
305.15 K, 18476 kPa	52.75
305.15 K, 18543 kPa	52.6
306.15 K, 19267 kPa	52.75
306.15 K, 19335 kPa	52.8
307.15 K, 20125 kPa	52.49
308.15 K, 20848 kPa	52.91
308.15 K, 20915 kPa	52.8
309.15 K, 21639 kPa	52.7
309.15 K, 21704 kPa	53.32
310.15 K, 22429 kPa	52.86
310.15 K, 22492 kPa	53.12
311.15 K, 23217 kPa	53.17
311.15 K, 23281 kPa	53.69
312.15 K, 24005 kPa	53.64
312.15 K, 24068 kPa	53.79
313.15 K, 24793 kPa	53.53
313.15 K, 24855 kPa	53.79
314.15 K, 25579 kPa	53.79
314.15 K, 25641 kPa	53.43
315.15 K, 26364 kPa	53.58
315.15 K, 26427 kPa	54
316.15 K, 27149 kPa	53.53
316.15 K, 27212 kPa	54.68
317.15 K, 27934 kPa	54.42
317.15 K, 27996 kPa	54.21
318.15 K, 28719 kPa	54.1
318.15 K, 28779 kPa	54.78
